The source made the active and inactive calls. The calls are words filed in the database; no cut-off is given here.
Legend:
NCI-H2228 [1] = experiment: Induction of apoptosis in human NCI-H2228 cells assessed as viable cells at 100 nM incubated for 48 hrs by AnnexinV-FITC/propidium iodide staining based flow cytometry analysis (reference value: 92.3 %); assay type: functional; conditions: read-out: Activity
NCI-H2228 [2] = experiment: Induction of apoptosis in human NCI-H2228 cells assessed as appearance of apoptotic bodies at 25 to 100 nM incubated for 48 hrs by Hoechst 33342 staining based fluorescence microscopic analysis; assay type: functional, cell-based; conditions: dose 25-100 nM
NCI-H2228 [3] = experiment: Induction of cell cycle arrest in human NCI-H2228 cells assessed as increase in G1 phase cells at 100 nM incubated for 48 hrs by PI/RNase staining based flow cytometry analysis (reference value: 49.72 %); assay type: functional
NCI-H2228 [4] = experiment: Induction of apoptosis in human NCI-H2228 cells assessed as necrotic cells at 25 nM incubated for 48 hrs by AnnexinV-FITC/propidium iodide staining based flow cytometry analysis (reference value: 0.55 %); assay type: functional
NCI-H2228 [5] = experiment: Induction of apoptosis in human NCI-H2228 cells assessed as early apoptotic cells at 100 nM incubated for 48 hrs by AnnexinV-FITC/propidium iodide staining based flow cytometry analysis (reference value: 2.45 %); assay type: functional
PC-3 = experiment: Antiproliferative activity against human PC-3 cells assessed as inhibition of cell growth incubated for 72 hrs by MTT assay; assay type: functional, cell-based; conditions: PC-3, 72 h
NCI-H2228 [6] = experiment: Antitumor activity against human NCI-H2228 cells xenografted in BALB/c nude mouse assessed as tumor growth inhibition at 50 mg/kg, IG administered every 2 days for 7 times relative to control; assay type: functional; conditions: NCI-H2228, po, 336 h, time 14 day, read-out: TGI
NCI-H2228 [7] = experiment: Induction of apoptosis in human NCI-H2228 cells assessed as necrotic cells at 50 nM incubated for 48 hrs by AnnexinV-FITC/propidium iodide staining based flow cytometry analysis (reference value: 0.55 %); assay type: functional
[8] = Antiproliferative activity […] EML4-ALK-G1202R cells assessed as inhibition of cell growth incubated for 72 hrs by MTT assay; assay type: functional, cell-based
[9] = Metabolic stability in Sprague-Dawley rat liver microsomes assessed as parent compound remaining preincubated for 5 mins in the presence of NADPH followed by microsomal addition and measured upto 60 mins by HPLC analysis; assay type: ADME, Microsome; conditions: time < 65 min, read-out: Stability
NCI-H2228 [10] = experiment: Induction of cell cycle arrest in human NCI-H2228 cells assessed as decrease in S phase cells at 50 nM incubated for 48 hrs by PI/RNase staining based flow cytometry analysis (reference value: 34.90 %); assay type: functional; parameters: scale not given: the % may be the effect or the level left
NCI-H2228 [11] = experiment: Inhibition of cell migration in human NCI-H2228 cells measured at 24 to 48 hrs by inverted microscopic based cell scratch assay; assay type: functional; conditions: dose 2.5-10 nM, time 24-48 hrs, DDE = dose-dependent effect

For `CNC(=O)c1ccccc1Nc1nc(Nc2ccc3c(C(=O)N(C)C)c(C)[nH]c3c2)ncc1Cl`, which viability at 0.1 µM (NCI-H2228 [1]) is on record?
Its viability at 0.1 µM is 68.6%.

And the Activity (NCI-H2228 [2])?
The Activity was “Active”.

And the Activity (NCI-H2228 [3])?
The Activity was 58.51%.

And the Activity (NCI-H2228 [4])?
The Activity was 1.68%.

And the Activity (NCI-H2228 [5])?
The Activity was 8.7%.

What about the IC50 (PC-3) of the same compound?
The IC50 was 1380 nM.

And the inhibition in vivo at 50 mg/kg (NCI-H2228 [6])?
The inhibition in vivo at 50 mg/kg was 93.5%.

And the Activity (NCI-H2228 [7])?
The Activity was 1.66%.

What about the IC50 [8] of the same compound?
The IC50 was 15 nM.

And the remaining at 1 h [9]?
Its remaining at 1 h is 29.7%.

And the Activity (NCI-H2228 [10])?
Its Activity is 32.28%.

What about the inhibition (NCI-H2228 [11]) of the same compound?
The inhibition was “Dde”.
